According to US12366579B2, “Sulfur-heterocycle exchange chemistry and uses thereof” (University of Virginia Patent Foundation, priority 2019, dated 2025):
Entries after “also recorded” stand apart in the source; their conditions may differ.

Assays:
[1] = biological target: T1, recombinant GSTP1 lysates (Homo sapiens, UniProt P09211); assay: GSTP1 biochemical substrate assay (GSH conjugation to BDNB)
T1 construct: FLAG (C); host or cells: HEK293T, transient transfection; soluble proteome used unpurified
Protocol: GSTP1 Biochemical Substrate Assay
Recombinant GSTP1-HEK293T soluble cell proteomes were diluted to 1 mg ml^−1 in assay buffer (100 mM NaH2PO4, pH 7.0). Samples were treated with inhibitor at indicated concentrations for 30 min at 37° C. GSH stock solution (250 mM in water) was diluted to 4 mM in assay buffer and 25 μl of diluted GSH solution was added to each sample. A substrate stock solution of 75 mM 1-bromo-2,4-dinitrobenzene […] in ethanol was diluted to 2 mM in assay buffer. Samples (25 μl) were aliquoted into a 96-well plate and spun briefly via centrifuge. Next, 50 μl of 2 mM BDNB was added to each well and the reaction was monitored in kinetic mode by measuring absorbance at 340 nm for 10 min on a BMG Labtech CLARIOstar plate reader (BMG Labtech, Cary, North Carolina, United States of America).

[2] = HPLC assay for solution reactivity of sulfonyl triazole fragments with p-cresol; format: physicochemical; conditions: HPLC assay, TMG base
Protocol: HPLC Assay for Profiling Solution Reactivity and Stability of Sulfonyl Triazole Fragments
The following reagents were prepared and stored on ice prior to use. 0.1 M solution of caffeine in acetonitrile, 1.0 M solution of n-butylamine, p-cresol, tetramethylguanidine […], 1 M HOAc in ACN and 10 mM solution of SuTEx fragment in DMF-ACN mixture (10:90, v/v). 500 μL of fragment solution was transferred to a dram vial on ice. To the mixture, 5.5 μL of TMG and 5.5 μL of p-cresol or n-butylamine was added and solutions were stirred on ice for 6 h. To monitor reactivity, 50 μL aliquots were removed at indicated time points and quenched with 10 μL of a 1:1 mixture of caffeine and HOAc. Samples were injected (1 μL) and analyzed by reverse-phase HPLC on a Shimadzu 1100 Series spectrometer (Shimadzu, Kyoto, Japan) with UV detection at 254 nm. Reaction progress was evaluated by monitoring consumption of starting material (SuTEx fragment) normalized to caffeine standard. Chromatographic separation was performed using a Phenomenex Kinetex C18 column (2.6 μm, 50×4.6 mm) (Phenomenex, Torrance, California, United States of America). Mobile phases A and B were composed of H2O+0.1% HOAc and ACN+0.1% HOAc, respectively. Samples were analyzed using the following analytical conditions: using a flow rate of 0.8 ml min^−1, the gradient was as follows: 0-0.5 min, 15% B; 0.5-6.5 min 85% B; 6.5-7 min 100% B: 7-8.5 min 100% B; 8.5-9 min 15% B; 9-9.8 min 15% B.

[3] = biological target: T2, PLD3 (Y437) (Homo sapiens, UniProt Q8IV08); assay: Competitive chemical proteomics of SuTEx fragments vs HHS-482, PLD3 site; format: binding; conditions: fragment 50 μM, 30 min, 37° C.
T2 construct: endogenous in cells; host or cells: DM93 melanoma cells, soluble proteome (lysate)
Protocol: (§1) Heavy and light proteomes (432 μl of each) were diluted to 2.3 mg ml^−1 in PBS and sample aliquots (432 μl) were treated with SuTEx fragment at the indicated concentrations (5 μl, 100× stock in DMSO), mixed gently and incubated for 30 min at 37° C. Samples were then treated with HHS-482 (5 μL, 5 mM stock in DMSO) for 30 min at 37° C. Probe-modified proteomes were conjugated to desthiobiotin-PEG3-azide followed by enrichment of probe-modified peptides for nano-electrospray ionization-LC-MS/MS analyses as previously described^57.
(§2) The chemical proteomic method for functional tyrosine profiling^72 was tailored to investigate AG/LG effects on SuTEx fragment reactivity in complex proteomes. In brief, isotopically light and heavy soluble proteomes from DM93 melanoma cells cultured by stable isotopic labeling by amino acids in cell culture (SILAC^80) media were used for quantitative liquid chromatography-mass spectrometry (LC-MS) studies. […] Proteomes were digested with trypsin protease, HHS-482-modified peptides enriched by avidin chromatography and analyzed by high-resolution LC-MS/MS and bioinformatics as described hereinabove.
(§3) To evaluate substituent effects on proteome activity, reactivity profiles of each respective SuTEx fragment were compared across >1500 total distinct HHS-482-modified tyrosine sites from >650 detected proteins. […]

[4] = biological target: EDC3 (Homo sapiens, UniProt Q96F86); assay: Chemical proteomics analysis of EDC3 using EKT-231 and HHS-465; format: binding; conditions: FIG. 46B
Excerpt: FIGS. 46A and 46B: Inhibition of mRNA decapping protein 3 (EDC3) Y475 by EKT-231. FIG. 46A is a schematic drawing of the chemical structure of EKT-231. FIG. 46B is a series of graphs showing the chemical proteomics analysis of EDC3 using EKT-231 and HHS-465.
In addition, SuTEx fragment EKT231 (see FIG. 46A) modifies EDC3 at tyrosine 475.

[5] = biological target: T3, GSTP1 Y8 (Homo sapiens, UniProt P09211); assay: Quantitative chemical proteomics of live SILAC DM93 cells treated with SuTEx fragments; format: cell-based; conditions: 50 μM compound, 1.5 hr, 37° C.
T3 construct: endogenous in cells; host or cells: DM93 melanoma cells (SILAC)
Protocol: Live Cell Evaluation of Sulfonyl-Triazole Fragments
(§4) Cells grown to ˜90% confluency in 10 cm plates were treated with DMSO vehicle or SuTEx fragment (10 μl of 1,000× stock) in serum-free media for the indicated concentrations and times at 37° C. with 5% CO2. After treatment, cells were washed with cold PBS twice before collection and preparation for gel-based chemical proteomic evaluation as described above. For LC-MS studies, protein concentrations were normalized to 2.3 mg ml^−1 and 432 μl (for 1 mg final protein amount) were used for sample preparation as detailed below.
as §1
Next, SILAC DM93 cells were treated with JWB152 or JWB198 to determine whether these SuTEx fragments could ligand Y8 of endogenous GSTP1 in living systems (50 μM compound, 1.5 hr, 37° C.). Cells were pretreated with DMSO vehicle or SuTEx fragments followed by cells lysis, HHS-482 labeling of proteomes, and quantitative chemical proteomics.

[6] = biological target: T4, GSTP1 (Homo sapiens, UniProt P09211); assay: Gel-based evaluation of proteomes from recombinant GSTP1-HEK293T cells treated with SuTEx fragments; format: cell-based; conditions: 50 μM compounds, 4 hr
T4 construct: FLAG (C); expressed in transfected cells; host or cells: HEK293T
Protocol: (§5) Cell pellets were lysed in PBS and fractionated (100,000×g, 45 min, 4° C.) to generate soluble and membrane fractions. Protein concentrations were determined using Bio-Rad DC protein assay (Bio-Rad Laboratories, Inc., Hercules, California, United States of America), and adjusted to 1 mgml^−1 in PBS. Proteome samples (49 μl aliquots) were treated with DMSO vehicle or indicated concentration of SuTEx fragment (1 μL, 50× stock in DMSO) for 30 min at 37° C. Samples were then treated with HHS-482 probe (1 μL, 2.5 mM stock in DMSO) for 30 min at 37° C. Probe labeled samples were conjugated to rhodamine-azide (1 μL, 1.25 mM stock; final concentration of 25 μM) by copper-catalyzed azide-alkyne cycloadditions (CuAAC) for 1 h at room temperature followed by SDS-PAGE and in-gel fluorescence scanning as previously described^57.
as §4

[7] = biological target: T5, human GSTP1 (hGSTP1) (Homo sapiens, UniProt P09211); assay: Gel-based competitive chemical proteomic screen with HHS-482, recombinant hGSTP1-HEK293T soluble proteomes; format: binding; conditions: fragment 50 μM, 30 min, 37° C.
T5 construct: FLAG (C); host or cells: HEK293T, transient transfection; soluble proteome used unpurified
Protocol: (§6) Gel-Based Chemical Proteomic Assay
as §5

[8] = biological target: T6, human DPP3 (hDPP3) (Homo sapiens, UniProt Q9NY33); assay: Gel-based competitive chemical proteomic screen with HHS-482, recombinant hDPP3-HEK293T soluble proteomes; format: binding; conditions: 50 μM fragment, 37° C., 30 min
T6 construct: FLAG (C); host or cells: HEK293T, transient transfection; soluble proteome used unpurified
T6 sequence (Q9NY33 1-737): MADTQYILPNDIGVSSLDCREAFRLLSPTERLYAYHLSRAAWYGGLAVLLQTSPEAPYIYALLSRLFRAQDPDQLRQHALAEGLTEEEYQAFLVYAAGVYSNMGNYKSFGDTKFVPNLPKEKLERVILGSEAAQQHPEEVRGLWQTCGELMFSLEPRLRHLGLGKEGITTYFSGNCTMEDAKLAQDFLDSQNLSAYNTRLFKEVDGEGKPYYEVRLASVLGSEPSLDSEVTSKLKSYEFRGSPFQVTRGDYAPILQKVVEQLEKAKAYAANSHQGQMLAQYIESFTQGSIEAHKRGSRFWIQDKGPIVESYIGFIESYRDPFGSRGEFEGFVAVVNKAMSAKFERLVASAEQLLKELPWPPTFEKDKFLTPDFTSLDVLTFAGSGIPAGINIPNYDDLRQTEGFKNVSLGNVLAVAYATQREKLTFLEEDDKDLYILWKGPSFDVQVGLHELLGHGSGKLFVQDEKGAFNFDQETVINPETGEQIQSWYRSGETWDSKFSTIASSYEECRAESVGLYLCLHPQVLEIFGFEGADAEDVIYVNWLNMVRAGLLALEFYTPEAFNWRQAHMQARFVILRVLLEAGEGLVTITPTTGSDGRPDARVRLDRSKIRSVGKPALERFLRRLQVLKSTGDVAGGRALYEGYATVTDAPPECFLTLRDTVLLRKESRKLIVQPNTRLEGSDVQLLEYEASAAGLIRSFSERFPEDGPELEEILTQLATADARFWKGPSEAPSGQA
Protocol: as §6, §5

[9] = biological target: T7, DPP3 Y417 (Homo sapiens, UniProt Q9NY33); assay: Quantitative LC-MS chemical proteomics of recombinant human DPP3-HEK293T soluble proteome; format: binding; conditions: 50 μM fragment, 37° C., 30 min
T7 construct: FLAG (C); host or cells: HEK293T, transient transfection; soluble proteome used unpurified
Protocol: Preparation of SILAC Proteomes for Liquid Chromatography-Tandem Mass Spectrometry ([…]) Analysis
as §1
Identification of peptides and proteins from tandem mass spectrometry analyses was accomplished using bioinformatics software and quality control criteria as previously described^57.

[10] = biological target: T8, YWHAE (Y49) (Homo sapiens, UniProt P62258); assay: Competitive chemical proteomics of SuTEx fragments vs HHS-482, YWHAE site; format: binding; conditions: fragment 50 μM, 30 min, 37° C.
T8 construct: endogenous in cells; host or cells: DM93 melanoma cells, soluble proteome (lysate)
Protocol: as §1, §2, §3

[11] = biological target: T9, purified DPP3 (Homo sapiens, UniProt Q9NY33); assay: DPP3 biochemical substrate assay (Arg-Arg β-naphthylamide peptidase assay)
T9 sequence (Q9NY33 1-737): T6 sequence (Q9NY33 1-737)
Protocol: DPP3 Biochemical Substrate Assay
Substrate assays were performed using purified DPP3 protein diluted to 5 ng/μL in assay buffer. DPP3 samples (10 μl) were diluted to 85 μl with assay buffer and transferred to a black 96-well plate. Samples were treated with a 50× stock of SuTEx-fragment at indication concentration for 30 min at 37° C. A stock solution of DPP3 substrate (Arg-Arg β-naphthylamide trihydrochloride, 0.5 mM: Sigma-Aldrich. St, Louis, Missouri, United States of America) was diluted to 100 μM in assay buffer. Substrate solution (5 μl) was added to each sample. Samples were mixed briefly by shaking and reaction monitored in kinetic mode by measuring fluorescence at 450 nm for 10 min on a BMG Labtech CLARIOstar plate reader (BMG Labtech, Cary, North Carolina, United States of America).

[12] = system: DM93 soluble proteomes; assay: Proteome-wide competitive chemical proteomics of SuTEx fragments vs HHS-482; format: binding, human; conditions: fragment 50 μM, 30 min, 37° C.

T1 sequence (P09211 whole entry): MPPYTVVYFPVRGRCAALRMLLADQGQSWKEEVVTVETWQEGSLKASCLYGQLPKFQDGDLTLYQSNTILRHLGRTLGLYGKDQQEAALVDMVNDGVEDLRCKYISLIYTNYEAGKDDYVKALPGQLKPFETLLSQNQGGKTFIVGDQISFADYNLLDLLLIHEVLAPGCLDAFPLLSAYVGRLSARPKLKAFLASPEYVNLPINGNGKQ
T2 sequence (Q8IV08 whole entry, the tested form may be a part): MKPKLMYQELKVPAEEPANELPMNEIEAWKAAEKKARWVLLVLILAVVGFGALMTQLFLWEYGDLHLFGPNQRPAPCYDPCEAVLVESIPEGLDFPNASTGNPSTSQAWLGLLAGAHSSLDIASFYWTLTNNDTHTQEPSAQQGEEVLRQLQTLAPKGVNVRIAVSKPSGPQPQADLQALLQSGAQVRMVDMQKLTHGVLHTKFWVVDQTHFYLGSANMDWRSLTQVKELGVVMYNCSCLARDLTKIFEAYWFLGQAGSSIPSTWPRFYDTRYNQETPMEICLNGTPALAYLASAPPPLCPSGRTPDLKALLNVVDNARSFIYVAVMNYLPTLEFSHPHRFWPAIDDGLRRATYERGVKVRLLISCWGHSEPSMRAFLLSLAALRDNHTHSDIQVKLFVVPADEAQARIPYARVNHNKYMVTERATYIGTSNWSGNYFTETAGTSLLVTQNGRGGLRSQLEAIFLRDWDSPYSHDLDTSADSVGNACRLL
T8 sequence (P62258 whole entry, the tested form may be a part): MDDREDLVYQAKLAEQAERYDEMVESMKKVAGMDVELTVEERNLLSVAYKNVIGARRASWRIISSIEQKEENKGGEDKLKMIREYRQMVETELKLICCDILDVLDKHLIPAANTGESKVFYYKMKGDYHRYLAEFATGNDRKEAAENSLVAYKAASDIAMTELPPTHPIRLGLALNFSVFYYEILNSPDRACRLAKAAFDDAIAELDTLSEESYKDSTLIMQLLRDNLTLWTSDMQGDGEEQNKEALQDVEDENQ
Chain of EDC3 (Q96F86 whole entry): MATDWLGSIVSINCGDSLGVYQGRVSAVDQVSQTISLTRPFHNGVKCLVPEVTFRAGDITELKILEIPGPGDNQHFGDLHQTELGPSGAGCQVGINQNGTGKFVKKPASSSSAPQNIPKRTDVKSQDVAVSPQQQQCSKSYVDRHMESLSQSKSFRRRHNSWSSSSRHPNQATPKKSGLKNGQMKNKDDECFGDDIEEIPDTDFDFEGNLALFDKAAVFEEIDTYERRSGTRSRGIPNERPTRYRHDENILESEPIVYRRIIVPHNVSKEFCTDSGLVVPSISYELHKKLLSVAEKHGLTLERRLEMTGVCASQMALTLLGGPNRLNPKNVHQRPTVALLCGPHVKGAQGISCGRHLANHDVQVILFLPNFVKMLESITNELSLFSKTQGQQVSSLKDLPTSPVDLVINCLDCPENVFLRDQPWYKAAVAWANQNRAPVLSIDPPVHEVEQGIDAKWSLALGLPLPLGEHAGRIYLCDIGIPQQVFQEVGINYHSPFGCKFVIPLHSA
T5 sequence (P09211 whole entry, the tested form may be a part): as the sequence (P09211 whole entry) above
T4 sequence (P09211 whole entry, the tested form may be a part): as the sequence (P09211 whole entry) above
T3 sequence (P09211 whole entry, the tested form may be a part): as the sequence (P09211 whole entry) above

O=S(=O)(C1CC1)n1cnc(-c2ccc(C(F)(F)F)cc2)n1 [JWB146, 1-(Cyclopropylsulfonyl)-3-(4-(trifluoromethyl)phenyl)-1H-1,2,4-triazole]
inhibitory activity against GSTP1 ([1]; negative control probes, highest concentration tested 100 μM): lack of activity; also recorded: did not show inhibitory activity
solution reactivity with p-cresol [2]: largely unreactive
SILAC ratio (SR) at tyrosine competed site PLD3 Y437 [3]: > 6

N#Cc1ccc(S(=O)(=O)n2cc(-c3cccc(Cl)c3)nn2)cc1 [EKT231]
tyrosine residue of EDC3 modified [4]: 475

N#Cc1ccc(S(=O)(=O)n2cnc(-c3ccc(C(F)(F)F)cc3)n2)cc1 [JWB152, 4-((3-(4-(Trifluoromethyl)phenyl)-1H-1,2,4-triazol-1-yl)sulfonyl)benzonitrile]
blockade of HHS-482 labeling of native GSTP1 Y8 in live cells [5]: ~20%
HHS-482 labeling of GSTP1 after live cell treatment [6]: reduced HHS-482 labeling
IC50 ([1]; inhibitor 30 min at 37° C., n=3, read-out: IC50, in vitro potency against GSTP1 by GSH substrate assay): 23 µM
block of HHS-482 labeling of GSTP1 [7]: block HHS-482 labeling to levels comparable with Y8F mutant
competition against recombinant DPP3 ([8]; also substantial proteome cross-reactivity): potent competition

COc1ccc(-c2ncn(S(=O)(=O)c3ccc(-c4ccccc4)cc3)n2)cc1 [JWB142, 1-([1,1′-Biphenyl]-4-ylsulfonyl)-3-(4-methoxyphenyl)-1H-1,2,4-triazole]
SILAC ratio (SR), DPP3 Y417 [9]: 2.4
blockade of HHS-482 labeling of DPP3 Y417 (site liganded) [9]: ~50%
SILAC ratio (SR) at tyrosine competed site YWHAE Y49 [10]: > 6
fold difference in potency against DPP3, JWB142 vs SuFEx-3 ([11]; JWB142 more potent than SuFEx counterpart): > 10 fold
IC50 ([11]; fragment pretreatment 30 min at 37° C., n=3, read-out: IC50, blockade of DPP3 catalytic (peptidase) activity): 17 µM
liganded tyrosine frequency (SR>4) [12]: < 0.1%
blockade of DPP3 probe (HHS-482) labeling [8]: ~50%
